The values below come from patent US20030153536A1, “Compounds and methods of treating transplant rejection” (priority 2001, published 2003).

For data set [1] the following is noted: background statement; cited from earlier work.
The subject of data set [2] is human aortic smooth muscle cells (AoSMC). As to the kind of experiment: Smooth muscle cell proliferation inhibition (3H-thymidine incorporation). The format is cell-based. The note with it: 5% serum-stimulated AoSMC, 20 hr incubation, read-out: SMC Proliferation Inhibition (IC50). The method, then: Cultured human aortic smooth muscle cells (AoSMC) were obtained from Clonetics, Inc. and were used below passage 10. Cells were seeded in 24-well plates. When cells were 80% confluent, they were made quiescent by adding media containing 0.2% serum (as compared to 5% serum in normal culture media) for 48 hours. The cells were then stimulated by 5% serum in the presence or absence of compounds dissolved in DMSO. To establish a dose curve and IC50 for each compound, multiple concentrations (20,15,10,5 μM) were used. Rapamycin (at 1 and 0.1 μM) was used as a positive control for the assay. After a 20 hr incubation with or without test compounds, ^3H-thymidine (0.5 μCi/per well) was added to the cells for 4 hours of labeling. Washed cells were then lysed in NaOH and the amount of^3H-thymidine incorporation was determined by a scintillation counter.

Data set [3] concerns ACI-to-Lewis rat aortic allograft. As to the kind of experiment: Rat aortic allograft model (graft arteriosclerosis). Type of data set: in vivo. The settings on record: for percent inhibition of IM ratio / percent inhibition of the % LN (luminal narrowing): day 90, vs vehicle control. As for the experimental part:
Compound A was evaluated for graft arteriosclerosis resulting from aortic heterotropic transplantation. This is a model of graft arteriopathy which is the major obstacle to long term success of solid organ transplantation.
Donor descending aortas from ACI rats were heterotypically transplanted into Lewis rat abdomens in end-to-end fashion with minimal ischemic time. 55 rats were assigned to five groups as follows:
(§1) Compound A was administered subcutaneously to recipient animals three days prior to the surgery and once daily for 90 days thereafter. […] Thereafter, the dose was reduced to 30 mg/kg/d for 6 days and then further reduced to 5 mg/kg/d for the remainder of the study.
On day 90, the allograft segment was removed, fixed in 10% buffered formal in and paraffin embedded. Sections were stained with von Geisson's elastic stain, and intima-to-media area (IM) ratio and percent luminal narrowing (% LN) were assessed by digital morphometry (See FIGS. 1 and 2). Blood was collected at regular intervals throughout the study and plasma evaluated for compound levels (See FIG. 3).

Data set [4] in a line: Tolerability in rat aortic allograft study. Type of data set: in vivo. As for the experimental part: as §1
The group receiving the 40/30/5 mg/kg/d dose of Compound A evidenced the highest degree of inhibition despite the fact that it received only a 40 mg/kg/d dose for 13 days prior to dosing down. […] After 90 days of dosing, the trough plasma levels were 10, 18 and 28 uM for the 10,20 and 40/30/5 mg/kg/d doses, respectively.

Where [5] appears, read: 20 mg and 40/30/5 mg/kg/d doses.

For the compound `C=CC[C@@H]1/C=C(\C)C[C@H](C)C[C@H](OC)[C@H]2O[C@@](O)(C(=O)C(=O)N3CCCC[C@H]3C(=O)O[C@H](/C(C)=C/[C@@H]3CC[C@@H](O)[C@H](OC)C3)[C@H](C)[C@@H](O)CC1=O)[C@H](C)C[C@@H]2OC` [FK506, tacrolimus], the “immunosuppressive activity relative to cyclosporin” value in data set [1] is listed as 10-100 times.

Turning to `CC(C)(Sc1cc(C(C)(C)C)c(O)c(C(C)(C)C)c1)Sc1cc(C(C)(C)C)c(OC(=O)CN)c(C(C)(C)C)c1` [Compound I], the IC50 in data set [2] is 8 µM.

As to `CC(C)(Sc1cc(C(C)(C)C)c(O)c(C(C)(C)C)c1)Sc1cc(C(C)(C)C)c(OCCCC(=O)O)c(C(C)(C)C)c1` [Compound A, 4-[4-[[1-[[3,5-bis(1,1-dimethylethyl)-4-hydroxyphenyl]thio]-1-methylethyl]thio]-2,6-bis(1,1-dimethylethyl)phenoxy]butyric acid], the IC50 in data set [2] turned out to be 5.5 µM. Moreover, in data set [3] (10 mg/kg/d subcutaneous), the “percent inhibition of IM ratio” value was 11% and the “percent inhibition of the % LN (luminal narrowing)” value (“percent inhibition of the % LN” below) is 22%. In data set [3] (setting [5]), the “% LN compared to the vehicle group” value is “significantly lower” and the “IM ratio compared to the vehicle group” value is on record as “significantly lower”. Also, in data set [3] (20 mg/kg/d subcutaneous), the “percent inhibition of IM ratio” value stood at 28% and the “percent inhibition of the % LN” value turned out to be 33%. Further, the “inhibition of aortic neointimal growth” value in data set [3] (10, 20, 40/30/5 mg/kg/d) is recorded as “dose-dependent inhibition”. In data set [3] (40/30/5 mg/kg/d subcutaneous), the “percent inhibition of IM ratio” value came out at 49% and the “percent inhibition of the % LN” value was found to be 52%. Also, the toxic side effects result in data set [4] (20 mg/kg/d) is “without grossly discemable toxic side effects”. For the same compound, the body weight change result in data set [4] (40 mg/kg/d group, until dose dropped to 5 mg/kg/d) is given as “initially lost weight”. The “adverse findings leading to dose reduction” value in data set [4] (40 mg/kg/d subcutaneous, 13 days) is “failure to gain weight and skin irritation”. In addition, the tolerability of treatment result in data set [4] (10 and 20 mg/kg/d subcutaneous) is reported as “well tolerated”.

Regarding `CCOC(=O)CC[C@H](NCC(O)COc1c(C(C)(C)C)cc(SC(C)(C)Sc2cc(C(C)(C)C)c(O)c(C(C)(C)C)c2)cc1C(C)(C)C)C(=O)OCC` (some centres unmarked) [E], the IC50 in data set [2] turned out to be 3.7 µM.
